Results reported in patent US20120165223A1 (priority 2006, published 2012).

What was measured:
anaerobic bacteria = assay: Composition of flora in feces of HFA mice: total number of anaerobic bacteria; type: in vivo; settings: 17th day, 500 μg/Ml in drinking water
Description: (§1) For the one week, the feces were picked asceptially with the interval of two to three days. The feces collected of colistin sulfate administeration, 2nd, 4th, 7th, 10th, 13th and 17th days are put in an encapsulated tube and moved to an anaerobic chamber immediately and is put in the PRAS (Prereduced and anaerobically sterilized) TGY medium with the ten times dilution of the weight of feces. The total number of anaerobic bacteria, the number of Bacteroides fragilis and Bifidobacterium spp. of the anaerobic bacteria, the number of aerobic bacteria, and the number of Esherichia coli and Enterococcus spp. of the aerobic bacteria are measured. […] (FIG. 7)

aerobic bacteria = assay: Composition of flora in feces of HFA mice: number of aerobic bacteria; type: in vivo; settings: 7th, 10th and 13th day from the medication, 500 μg/Ml in drinking water
Description: as §1

glucuronidase = assay: Fecal enzyme activity of flora of HFA mice: glucuronidase; type: in vivo, human intestinal normal bacterial flora
Description: (§2) For the one week, the feces were picked free from germs with the interval of two to three days. The feces collected at the day of colistin sulfate administration, 2nd, 4th, 7th, 10th, 13th, 17th and 20th days and at 3rd and 5th day after the stop of medication are put in an encapsulated tube and moved to an anaerobic chamber immediately and the activity of glucuomidase, glucosidase, nitrate reductase and azoreductase produced by the human intestinal normal bacterial flora is measured. As a result glucuronidase is decreased throughout the period of administration and the withdrawal period in comparison with control groups and is not recovered even at the 5th day since the medication is stopped. Glucosidase is increased during the medication period in comparison with the control groups. Nitrate reductase is increased in comparison with the control group at the start day of administration and the 2nd day of the medication but is recovered. Azoreductase is increased in comparison with the control group until the 7th day of medication and then decreased.

glucosidase = assay: Fecal enzyme activity of flora of HFA mice: glucosidase; type: in vivo, human intestinal normal bacterial flora
Description: as §2

nitrate reductase = assay: Fecal enzyme activity of flora of HFA mice: nitrate reductase; type: in vivo, human intestinal normal bacterial flora
Description: as §2

azoreductase = assay: Fecal enzyme activity of flora of HFA mice: azoreductase; type: in vivo, human intestinal normal bacterial flora
Description: as §2

[1] = 5th day since the medication is stopped

## colistin sulfate
Anaerobic bacteria
  Total number of anaerobic bacteria in feces in comparison with HFA mice: increased by about twice
Aerobic bacteria
  Number of aerobic bacteria in feces: decreased
glucuronidase; [1]
  Glucuronidase activity, recovery: not recovered
glucuronidase; throughout the period of administration and the withdrawal period
  Glucuronidase activity in comparison with control groups: decreased
glucosidase; [1]
  Glucosidase activity, recovery: not recovered
glucosidase; during the medication period
  Glucosidase activity in comparison with the control groups: increased
Nitrate reductase; after the 2nd day of the medication
  Nitrate reductase activity, recovery: recovered
Nitrate reductase; start day of administration and 2nd day of the medication
  Nitrate reductase activity in comparison with the control group: increased
azoreductase; [1]
  Azoreductase activity, recovery: not even recovered
azoreductase; after the 7th day of medication
  Azoreductase activity in comparison with the control group: decreased
azoreductase; until the 7th day of medication
  Azoreductase activity in comparison with the control group: increased
